What was measured:
HDAC6 = assay: ERα-dependent CAT reporter with LCoR and HDAC6 cotransfection in MCF-7 cells; format: cell-based, human; settings: estradiol 10 nM, TSA 500 nM, trapoxin 50 nM
Method: All cells were cultured under the recommended conditions. For immunocytochemistry, COS-7 cells grown on collagen IV-treated microscope slides in 6-well plates in DMEM, supplemented with 10% FBS were transfected in medium without serum with 12.5 μl of lipofectamine 2000 (Invitrogen, Burlington, Ont.) containing 1 μg each of pSG5/LCoR and HA-Flag-HDAC6/pcDNA3. Medium was replaced 24 h after transfection and cells were prepared for immunocytochemistry after 48 h as described below. For immunoprecipitation of tagged proteins, MCF-7 cells in 100 mm dishes were transfected with 10 μl of lipofectamine containing 10 μg of pSG5 vectors containing Flag-LCoR, Flag-m1, Flag-m2 or Flag-m1+2. For analysis of the effects of HDACs 3 or 6 on LCoR corepression, COS-7 cells (60-70% confluent) grown in DMEM without phenol red, supplemented with 10% FBS on 6-well plates were transfected in medium without serum with lipofectamine 2000 (Invitrogen, Burlington, Ontario, Canada) with 100 ng of ERα expression vectors as indicated, 300 ng of LCoR/pSG5, 300 ng of HA-HDAC3/pCDNA3.1 or […], 250 ng of ERE3-TATA-CAT reporter plasmid, 250 ng of internal control vector pCMV-βgal, and pBluescript carrier DNA to 4 μg. Medium was replaced 18 hr after transfection by a medium containing charcoal-stripped serum and ligand (10 nM) for 30 hr, as indicated. […]

ERα = molecular target: T1, ERα (Homo sapiens, UniProt P03372); assay: Transient transfection luciferase reporter, ERα transactivation in COS-7 cells; format: cell-based; settings: TSA 3 μM, COS-7 cells
T1 construct: expressed in transfected cells; host or cells: COS-7
T1 sequence (P03372 1-595): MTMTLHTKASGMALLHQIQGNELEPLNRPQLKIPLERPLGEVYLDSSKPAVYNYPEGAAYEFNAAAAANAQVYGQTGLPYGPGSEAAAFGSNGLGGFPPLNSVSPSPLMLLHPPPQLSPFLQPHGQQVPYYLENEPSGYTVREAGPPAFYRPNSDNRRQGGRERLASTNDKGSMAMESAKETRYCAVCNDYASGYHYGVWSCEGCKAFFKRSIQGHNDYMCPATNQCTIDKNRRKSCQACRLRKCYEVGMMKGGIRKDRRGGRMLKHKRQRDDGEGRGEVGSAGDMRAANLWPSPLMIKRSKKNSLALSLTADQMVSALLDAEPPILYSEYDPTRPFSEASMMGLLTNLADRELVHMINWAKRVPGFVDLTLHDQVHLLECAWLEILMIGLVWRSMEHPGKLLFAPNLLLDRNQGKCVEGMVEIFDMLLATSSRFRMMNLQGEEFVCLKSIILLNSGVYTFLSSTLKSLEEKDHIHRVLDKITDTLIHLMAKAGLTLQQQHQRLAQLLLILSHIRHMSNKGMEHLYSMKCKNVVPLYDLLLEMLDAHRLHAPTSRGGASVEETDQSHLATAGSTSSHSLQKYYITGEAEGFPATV
Method: All cell lines were cultured under the recommended conditions. COS-7 cells grown in […] in DMEM without phenol red, supplemented with 10% FBS were transfected in medium without serum with lipofectamine 2000 (Invitrogen, Burlington, Ont.) with 100 ng of nuclear receptor expression vectors as indicated, 200 ng of TIF-2 or TIF-2.1, as indicated, 250 ng of reporter plasmid, 250 ng of infemal control vector pCMV-βgal, and various concentrations of LCoR/pSG5 or LCoR-LSKAA/pSG5 expression vectors and pSG5 carrier. Medium was replaced 24 h after transfection by a medium containing charcoal-stripped serum and ligand (100 nM) and TSA (3 μM) for 18 h, as indicated. Cells were harvested in 200 […] of reporter lysis buffer (Promega).
COS-7 cells were cotransfected with expression vectors for ERα HEG0 (A and C) or GR (D) or PR (F) or VDR (H), ERE3-TATA-pXP2 (A and C), GRE5/pXP2 (D and F) or VDRE3tk/pXP2 (H) luciferase reporter vectors, pCMV-β-gal as internal control, and LCoR/pSG5 or LSKAA/pSG5 expression vectors as indicated. Cells were treated with 10^−7M of hormones (solid bars) or vehicle (open bars). Normalized luciferase activities (RLU) are the means±SEM from at least 3 experiments. […] Cells were transfected as in FIG. 5A with LCoR, TIF-2 or TIF2.1 as indicated. […]

CC(/C=C/C(=O)NO)=C\[C@@H](C)C(=O)c1ccc(N(C)C)cc1 [TSA, trichostatin A]
effect on HDAC6 repression / enhancement of LCoR corepression of ERα transactivation (HDAC6): abolished | effect on LCoR-dependent repression of ERα function (ERα): completely abolished

— patent US20070054353A1, “Nuclear receptor transcriptional corepressor and uses thereof” (priority 2002, published 2007)
